Results published in patent publication US20230028441A1, “NOVEL HETEROARYL-TRIAZOLE COMPOUNDS AS PESTICIDES” (Bayer Aktiengesellschaft, priority 2019, published 2023).

What was measured:
Assay type in all cases: in vivo
[1] = test system: green peach aphid (Myzus persicae); assay: Myzus persicae oral test; settings: 120 h
Method: Solvent: 100 parts by weight acetone
To produce a suitable preparation of active compound, 1 part by weight of active compound is mixed with the stated amount of solvent, and the concentrate is diluted with water to the desired concentration.
50 μL compound solution is filled in microtiter plates and 150 μL IPL41 insect medium (33%+15% sugar) is added to obtain a total volume of 200 μL per well. Afterwards the plates are sealed with parafilm through which a mixed population of the green peach aphid (Myzus persicae) can suck on the compound preparation.
After 5 days mortality in % is determined. 100% means all aphids have been killed and 0% means none of the aphids have been killed.

[2] = test system: fall armyworm larvae (Spodoptera frugiperda); assay: Spodoptera frugiperda spray test (maize leaf sections); settings: 168 h
Procedure, shortened: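 Maize leaf sections were sprayed with compound formulated in acetone/DMF and diluted in water containing 1000 ppm emulsifier. Once dry, sections were infested with fall armyworm larvae. Mortality (%) was scored after 7 days.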

[3] = test system: adult engorged female ticks (Rhipicephalus microplus); assay: Rhipicephalus (Boophilus) microplus injection test; settings: 168 h, egg deposition after 7 days, read-out: efficacy (infertile eggs); for pest or weed control at 0.004 mg: 4 μg/animal; for pest or weed control at 0.02 mg: 20 μg/animal
Procedure, shortened: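 Compound was dissolved in DMSO at 10 mg per 0.5 mL and diluted with DMSO to the test concentration. Five engorged adult females received a 1 μL abdominal injection and were kept in a climate chamber. After 7 days, fertile egg deposition was scored, with unclear eggs held until hatching at about 42 days; 100% efficacy means all eggs were infertile.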

[4] = test system: adult unfed cat fleas (Ctenocephalides felis); assay: Ctenocephalides felis oral test; settings: 48 h, 100 ppm in cattle blood, after 2 days
Method: Solvent: dimethyl sulfoxide
To produce a suitable preparation of active compound, 10 mg of active compound are dissolved in 0.5 mL solvent, and the concentrate is diluted with cattle blood to the desired concentration.
Approximately 20 adult unfed cat fleas (Ctenocephalides felis) are placed in flea chambers. The blood chamber, sealed with parafilm on the bottom, are filled with cattle blood supplied with compound solution and placed on the gauze covered top of the flea chamber, so that the fleas are able to suck the blood. The blood chamber is heated to 37° C. whereas the flea chamber is kept at room temperature.
After 2 days mortality in % is determined. 100% means all the fleas have been killed; 0% means none of the fleas have been killed.

[5] = test system: larvae of the southern green stink bug (Nezara viridula); assay: Nezara viridula spray test; settings: in Hordeum vulgare, 96 h
Method: Solvent: 78.0 parts by weight of acetone • • 1.5 parts by weight of dimethylformamide
Emulsifier: alkylarylpolyglycol ether
To produce a suitable preparation of active compound, 1 part by weight of active compound is mixed with the stated amount of solvent, and the concentrate is diluted with water, containing an emulsifier concentration of 1000 ppm, to the desired concentration. Further test concentrations are prepared by dilution with emulsifier containing water.
Barley plants (Hordeum vulgare) infested with larvae of the southern green stink bug (Nezara viridula) are sprayed with a test solution containing the desired concentration of the active ingredient.
After 4 days mortality in % is determined. 100% means all the stink bugs have been killed; 0% means none of the stink bugs have been killed.

[6] = test system: cattle tick larvae (Rhipicephalus microplus), strain Parkhurst, resistant against synthetic pyrethroids; assay: Rhipicephalus (Boophilus) microplus in-vitro contact test, larval cattle tick; settings: 5 μg/cm^2 (=500 g/ha), after 48 hours, read-out: efficacy (larvae dead or moribund)
Method: (§1) 9 mg compound is solved in 1 mL acetone and diluted with acetone to the desired concentration. 250 μL of the test solution is filled in 25 mL glass test tubes and homogeneously distributed on the inner walls by rotation and tilting on a shaking device (2 h at 30 rpm). With a compound concentration of 900 ppm, an inner surface of 44.7 cm^2 and a homogeneous distribution, a dose of 5 μg/cm^2 is achieved.
After the solvent has evaporated, each test tube is filled with 20-50 cattle tick larvae (Rhipicephalus microplus), closed with a perforated lid and incubated in a horizontal position at 85% relative humidity and 27° C. in an incubator. After 48 hours efficacy is determined. The larvae are patted on the ground of the tubes and negative geotactic behaviour is recorded.
An efficacy of 100% means all larvae are dead or moribund; 0% means no larvae are dead or moribund.

[7] = test system: adult brown dog ticks (Rhipicephalus sanguineus); assay: Rhipicephalus sanguineus in-vitro contact test with adult brown dog ticks; settings: after 48 hours, read-out: efficacy (ticks dead or moribund)
Method: as §1
After the solvent has evaporated, each test tube is filled with 5-10 adult brown dog ticks (Rhipicephalus sanguineus), closed with a perforated lid and incubated in a lying position at room temperature and relative humidity. After 48 hours efficacy is determined. The ticks are patted on the ground of the tubes and are incubated on a heating plate at 45-50° C. for at most 5 minutes. Immotile or uncoordinated moving ticks, which are not able to escape the heat by climbing upwards, are marked as dead or moribund.
An efficacy of 100% means all ticks are dead or moribund; 0% means no ticks are dead or moribund.

[8] = test system: larvae of the banded cucumber beetle (Diabrotica balteata); assay: Diabrotica balteata spray test; settings: 168 h, 100 g/ha (=32 μg/well), after 7 days, wheat seeds, read-out: efficacy (seedlings grown up)
Procedure, shortened: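 Germinated wheat seedlings (5 per well, agar plates) sprayed with compound in acetone/DMF diluted in water with 1000 ppm emulsifier, then infested with 10-20 larvae per unit. Efficacy scored after 7 days as % seedling growth relative to untreated, uninfested control (100% = normal growth, 0% = none).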

CC(NC(=O)c1cc(Br)cc(Br)c1)c1nc(N)nn1-c1ncccn1 (stereo not drawn) [I-094]
mortality at 4 ppm [1]: 100% | mortality at 100 g/ha [2]: 100%

CC(NC(=O)c1cc(Cl)cc(S(C)(=O)=O)c1)c1nc(-c2ccco2)nn1-c1ncccn1 (stereo not drawn) [I-057]
pest or weed control at 0.004 mg [3]: 80% | pest or weed control at 0.02 mg [3]: 100% | mortality at 100 ppm [4]: 100% | mortality at 4 ppm [1]: 100%

CC(NC(=O)c1cc(Cl)cc(S(C)(=O)=O)c1)c1nc(S(C)(=O)=O)nn1-c1ccc(Cl)cn1 (racemic) [I-060, 3-chloro-N-[1-[2-(5-chloro-2-pyridyl)-5-methylsulfonyl-1,2,4-triazol-3-yl]ethyl]-5-methylsulfonyl-benzamide]
pest or weed control at 0.004 mg [3]: 100% | pest or weed control at 0.02 mg [3]: 100% | mortality at 4 ppm [1]: 100% | mortality at 100 g/ha [5]: 100% | mortality at 500 g/ha [5]: 100%

CC(NC(=O)c1cc(Cl)cc(C(F)(F)F)c1)c1nc(C(N)=O)nn1-c1ncccn1 (single isomer, unassigned) [I-074, 5-[1-[[3-chloro-5-(trifluoromethyl)benzoyl]amino]ethyl]-1-pyrimidin-2-yl-1,2,4-triazole-3-carboxamide]
pest or weed control at 0.004 mg [3]: 100% | mortality at 100 ppm [4]: 100% | mortality at 4 ppm [1]: 100% | mortality at 100 g/ha [5]: 100%

CC(Cl)C(=O)Nc1nc(C(C)NC(=O)c2cc(Cl)cc(S(C)(=O)=O)c2)n(-c2ncccn2)n1 (stereo not drawn) [I-019]
pest or weed control at 0.004 mg [3]: 100% | mortality at 100 ppm [4]: 100% | mortality at 4 ppm [1]: 90% | mortality at 100 g/ha [5]: 90%

CC(NC(=O)c1cc(Cl)cc(S(C)(=O)=O)c1)c1nc(NS(C)(=O)=O)nn1-c1ccc(Cl)cn1 (racemic) [I-025, 3-chloro-N-[1-[2-(5-chloro-2-pyridyl)-5-(methanesulfonamido)-1,2,4-triazol-3-yl]ethyl]-5-methylsulfonyl-benzamide]
mortality at 4 ppm [1]: 90%

CC(NC(=O)c1cc(Br)cc(C(F)(F)F)c1)c1nc(N)nn1-c1ncccn1 (stereo not drawn) [I-093]
pest or weed control at 5 µg/cm2 [6]: 100% | pest or weed control at 0.004 mg [3]: 100% | mortality at 100 ppm [4]: 90% | pest or weed control at 1 µg/cm2, 100 g/ha ([7]; 1 μg/cm^2 (=100 g/ha)): 80% | mortality at 4 ppm [1]: 100% | mortality at 100 g/ha [2]: 83%

CC(NC(=O)c1cc(Cl)cc(S(C)(=O)=O)c1)c1nc(CS(C)(=O)=O)nn1-c1ccc(Cl)cn1 (stereo not drawn) [I-027, 3-chloro-N-[1-[2-(5-chloro-2-pyridyl)-5-(methylsulfonylmethyl)-1,2,4-triazol-3-yl]ethyl]-5-methylsulfonyl-benzamide]
pest or weed control at 5 µg/cm2 [6]: 90% | pest or weed control at 0.004 mg [3]: 80% | pest or weed control at 0.02 mg [3]: 100% | mortality at 100 ppm [4]: 100% | mortality at 4 ppm [1]: 100% | mortality at 100 g/ha [5]: 100% | mortality at 500 g/ha [5]: 100%

CC(NC(=O)c1cc(Cl)cc(C(F)(F)F)c1)c1nc(NC(=O)[C@@H]2C[C@@H]2F)nn1-c1ncccn1 (stereo partly drawn) [I-024]
pest or weed control at 32 µg/disc, 100 g/ha [8]: 100% | mortality at 4 ppm [1]: 100% | mortality at 100 g/ha [2]: 100%

CC(NC(=O)c1cc(Cl)cc(S(C)(=O)=O)c1)c1nc(N)nn1-c1ccc(Cl)cn1 (stereo not drawn) [I-005]
pest or weed control at 0.004 mg [3]: 100% | pest or weed control at 0.02 mg [3]: 100% | mortality at 100 ppm [4]: 100% | mortality at 4 ppm [1]: 90%

CC(NC(=O)c1cc(Cl)cc(S(C)(=O)=O)c1)c1nc(NC(=O)C2(Cl)CC2)nn1-c1ncccn1 (stereo not drawn) [I-020]
pest or weed control at 0.004 mg [3]: 100% | mortality at 100 ppm [4]: 100% | mortality at 4 ppm [1]: 90%

CC(NC(=O)c1cncc(C(F)(F)F)c1)c1nc(-c2ncccn2)nn1-c1ncccn1 (stereo not drawn) [I-053]
mortality at 100 ppm [4]: 100% | mortality at 4 ppm [1]: 90%

CNC(=O)c1nc(C(C)NC(=O)c2cc(Cl)cc(C(F)(F)F)c2)n(-c2ccc(C#N)cn2)n1 (stereo not drawn) [I-079]
pest or weed control at 5 µg/cm2 [6]: 100% | pest or weed control at 0.004 mg [3]: 100% | pest or weed control at 0.02 mg [3]: 100% | mortality at 100 ppm [4]: 100% | mortality at 4 ppm [1]: 100% | mortality at 100 g/ha [2]: 100%

CC(NC(=O)c1cc(Cl)cc(S(C)(=O)=O)c1)c1nc(-c2cnccn2)nn1-c1ncccn1 (stereo not drawn) [I-045]
pest or weed control at 0.004 mg [3]: 100% | pest or weed control at 0.02 mg [3]: 100% | mortality at 100 ppm [4]: 100% | pest or weed control at 5 µg/cm2, 500 g/ha ([7]; 5 μg/cm^2 (=500 g/ha)): 80% | mortality at 4 ppm [1]: 90%

CC(=O)Nc1nc(C(C)NC(=O)c2cc(Cl)cc(S(C)(=O)=O)c2)n(-c2ccc(Cl)cn2)n1 (stereo not drawn) [I-017]
pest or weed control at 0.004 mg [3]: 100% | pest or weed control at 0.02 mg [3]: 100% | mortality at 100 ppm [4]: 100% | mortality at 4 ppm [1]: 100% | mortality at 100 g/ha [5]: 90% | mortality at 500 g/ha [5]: 100% | mortality at 500 g/ha [2]: 100%

CC(NC(=O)c1cc(Cl)cc(Br)c1)c1nc(N)nn1-c1ncccn1 (stereo not drawn) [I-108]
pest or weed control at 5 µg/cm2 [6]: 90% | pest or weed control at 32 µg/disc, 100 g/ha [8]: 100% | mortality at 4 ppm [1]: 100% | mortality at 100 g/ha [2]: 100%

CC(NC(=O)c1cc(Cl)cc(C(F)(F)F)c1)c1nc(C#N)nn1-c1ncccn1 (single isomer, unassigned) [I-080, 3-chloro-N-[1-(5-cyano-2-pyrimidin-2-yl-1,2,4-triazol-3-yl)ethyl]-5-(trifluoromethyl)benzamide]
pest or weed control at 0.004 mg [3]: 100% | mortality at 100 ppm [4]: 100% | pest or weed control at 32 µg/disc, 100 g/ha [8]: 100% | mortality at 4 ppm [1]: 90%

CC(NC(=O)c1cc(Cl)cc(C(F)(F)F)c1)c1nc(NC(=O)C2CC2)nn1-c1ncccn1 (stereo not drawn) [I-023]
pest or weed control at 32 µg/disc, 100 g/ha [8]: 100% | mortality at 4 ppm [1]: 100% | mortality at 100 g/ha [5]: 90% | mortality at 100 g/ha [2]: 100%
